Data from ChEMBL document CHEMBL3352063, “Transition state mimetics of the Plasmodium export element are potent inhibitors of Plasmepsin V from P. falciparum and P. vivax” (J Med Chem, 2014).
Where “and” joins values, the source holds several entries; their conditions need not be identical. Equal values may be shown once. Square brackets hold non-standard residues; d marks the D form. Peptide text beside a SMILES is read from it. * marks the point of attachment. Sta = CC(C)C[C@H](N)[C@@H](O)CC(=O)O; Cbz = O=C(OCc1ccccc1)*; NHBn = c1ccc(CN*)cc1

Key:
Cathepsin D = Cathepsin D (Homo sapiens, UniProt P07339); test: Inhibition of human cathepsin D assessed as cleavage of wtKAHRP fluorogenic substrate
Sequence of Cathepsin D (P07339 65-162 limits assumed): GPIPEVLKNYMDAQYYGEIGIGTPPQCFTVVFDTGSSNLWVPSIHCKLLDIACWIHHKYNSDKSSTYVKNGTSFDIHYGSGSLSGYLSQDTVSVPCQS
Sequence of Cathepsin D (P07339 169-412 limits assumed): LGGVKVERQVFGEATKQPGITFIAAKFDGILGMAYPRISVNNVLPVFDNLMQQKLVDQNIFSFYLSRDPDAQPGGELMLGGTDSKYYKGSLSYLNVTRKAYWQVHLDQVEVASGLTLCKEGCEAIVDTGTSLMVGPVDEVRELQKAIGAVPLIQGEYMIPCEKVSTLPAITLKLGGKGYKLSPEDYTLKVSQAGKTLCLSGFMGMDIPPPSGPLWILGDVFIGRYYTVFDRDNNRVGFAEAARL

Plasmepsin V [1] = molecular target: Plasmepsin V (Plasmodium falciparum (isolate 3D7), UniProt Q8I6Z5); test: Inhibition of Plasmodium falciparum plasmepsin V assessed as cleavage of wtKAHRP fluorogenic substrate
Sequence of Plasmepsin V (Plasmodium falciparum (isolate 3D7), UniProt Q8I6Z5) (Q8I6Z5 whole entry): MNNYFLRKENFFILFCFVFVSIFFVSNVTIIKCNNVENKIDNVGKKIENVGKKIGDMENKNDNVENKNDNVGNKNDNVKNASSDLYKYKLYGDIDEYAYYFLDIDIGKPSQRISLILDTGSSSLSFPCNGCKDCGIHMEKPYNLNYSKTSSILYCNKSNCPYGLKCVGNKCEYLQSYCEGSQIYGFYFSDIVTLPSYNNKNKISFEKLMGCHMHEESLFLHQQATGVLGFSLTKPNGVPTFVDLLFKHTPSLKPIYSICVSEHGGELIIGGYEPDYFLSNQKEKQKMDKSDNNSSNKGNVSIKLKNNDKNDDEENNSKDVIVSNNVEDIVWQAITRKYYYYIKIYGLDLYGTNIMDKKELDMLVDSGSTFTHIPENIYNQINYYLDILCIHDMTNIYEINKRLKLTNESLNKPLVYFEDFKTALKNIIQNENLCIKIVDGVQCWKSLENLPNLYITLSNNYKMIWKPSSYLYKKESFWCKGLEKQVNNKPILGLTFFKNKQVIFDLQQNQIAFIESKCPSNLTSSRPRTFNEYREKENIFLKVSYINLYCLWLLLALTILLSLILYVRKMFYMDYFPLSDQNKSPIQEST

Plasmodium falciparum = test: Antiplasmodial activity against Plasmodium falciparum 3D7 infected in human O positive erythrocyte after 72 hrs; type: functional, organism-based; conditions: 3D7, 72 h
Beta-secretase 1 = Beta-secretase 1 (Homo sapiens, UniProt P56817); test: Inhibition of human BACE1 assessed as cleavage of TRF substrate
Sequence of Beta-secretase 1 (P56817 whole entry): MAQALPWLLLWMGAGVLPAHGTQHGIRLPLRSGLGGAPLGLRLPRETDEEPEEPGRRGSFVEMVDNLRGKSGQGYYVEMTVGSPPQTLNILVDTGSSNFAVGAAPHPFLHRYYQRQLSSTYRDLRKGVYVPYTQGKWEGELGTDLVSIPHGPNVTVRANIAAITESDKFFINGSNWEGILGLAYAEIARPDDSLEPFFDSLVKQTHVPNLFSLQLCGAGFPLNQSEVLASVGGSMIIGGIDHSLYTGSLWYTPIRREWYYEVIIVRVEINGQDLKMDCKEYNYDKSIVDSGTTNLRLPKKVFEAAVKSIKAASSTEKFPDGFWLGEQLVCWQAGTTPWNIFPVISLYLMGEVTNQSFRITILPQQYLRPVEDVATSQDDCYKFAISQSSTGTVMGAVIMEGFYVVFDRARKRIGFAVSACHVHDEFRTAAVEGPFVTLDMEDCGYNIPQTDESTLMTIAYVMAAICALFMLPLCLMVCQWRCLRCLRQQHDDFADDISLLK

[2] = molecular target: Plasmepsin V (Plasmodium falciparum (isolate 3D7)) (UniProt Q8I6Z5); test: Inhibition of plasmepsin V in Plasmodium falciparum trophozoite expressing PfEMP3-GFP infected erythrocyte assessed as PEXEL processing at 20 uM by immunoblotting analysis
Sequence of Plasmepsin V (Plasmodium falciparum (isolate 3D7)) (Q8I6Z5 whole entry, looked up): as the sequence (Q8I6Z5 whole entry) above

HepG2 = test: Cytotoxicity against human HepG2 cells assessed as cell death after 48 hrs by Cell Titer-Glo assay; type: cell-based; conditions: HepG2, 48 h
[3] = molecular target: Plasmepsin V (Plasmodium falciparum (isolate 3D7)) (UniProt Q8I6Z5); test: Inhibition of Plasmodium falciparum plasmepsin V assessed as cleavage of wtKAHRP fluorogenic substrate at 1 uM
Plasmepsin V [4] = molecular target: Plasmepsin V (Plasmodium vivax, UniProt A0A0H4FQ60); test: Inhibition of Plasmodium vivax plasmepsin V by fluorogenic PEXEL cleavage assay
Sequence of Plasmepsin V (Plasmodium vivax, UniProt A0A0H4FQ60) (A0A0H4FQ60 whole entry): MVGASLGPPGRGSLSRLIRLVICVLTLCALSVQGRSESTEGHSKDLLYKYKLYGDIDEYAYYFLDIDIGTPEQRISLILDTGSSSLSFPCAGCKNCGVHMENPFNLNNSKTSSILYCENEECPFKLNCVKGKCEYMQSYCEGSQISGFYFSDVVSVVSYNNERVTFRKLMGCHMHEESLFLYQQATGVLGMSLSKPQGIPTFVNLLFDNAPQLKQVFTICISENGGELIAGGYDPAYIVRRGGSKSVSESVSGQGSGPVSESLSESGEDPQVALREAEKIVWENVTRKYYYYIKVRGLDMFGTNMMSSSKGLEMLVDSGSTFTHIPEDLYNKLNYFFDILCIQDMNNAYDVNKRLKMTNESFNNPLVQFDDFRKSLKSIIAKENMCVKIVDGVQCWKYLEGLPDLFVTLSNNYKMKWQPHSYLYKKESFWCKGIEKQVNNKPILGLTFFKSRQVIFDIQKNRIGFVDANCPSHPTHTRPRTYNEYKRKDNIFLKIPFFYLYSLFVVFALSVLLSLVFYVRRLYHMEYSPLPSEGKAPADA

[5] = molecular target: Plasmepsin V (Plasmodium vivax) (UniProt A0A0H4FQ60); test: Inhibition of Plasmodium vivax plasmepsin V at 1 uM by fluorogenic PEXEL cleavage assay
Sequence of Plasmepsin V (Plasmodium vivax) (A0A0H4FQ60 as listed by the source): as the sequence (A0A0H4FQ60 whole entry) above

Structure (SMILES)	IC50 (Cathepsin D) [µM]	IC50 (Plasmepsin V [1]) [µM]	EC50 (Plasmodium falciparum) [µM]	IC50 (Beta-secretase 1) [µM]	Activity [2] [OD/mm2]	EC50 (HepG2) [µM]	inhibition [3]	IC50 (Plasmepsin V [4]) [µM]	inhibition [5] [%]
CC(C)C[C@H](NC(=O)[C@@H](NC(=O)[C@H](CCCNC(=N)N)NC(=O)OCc1ccccc1)C(C)C)[C@@H](O)CC(=O)NC1CCCCC1	0.713	0.029	9.8	> 100	0.24	> 50	–	–	–
CCN(CC)CCCC(C)Nc1ccnc2cc(Cl)ccc12 (configuration not stated) [CHLOROQUINE]	–	–	0.003	–	–	–	–	–	–
CC(C)C[C@H](NC(=O)[C@H](C)NC(=O)[C@H](CCCNC(=N)N)NS(=O)(=O)c1ccccc1)[C@@H](O)CC(=O)NCCc1ccccc1	> 100	0.378	16.3	> 100	0.31	> 50	78%	–	–
CC(C)C[C@H](NC(=O)[C@H](CCCNC(=N)N)NC(=O)OCc1ccccc1)C(=O)N[C@@H](CC(C)C)[C@@H](O)CC(=O)NC1CCCCC1	5.1	0.077	8.9	> 100	0.26	> 50	–	–	–
CC[C@H](C)[C@H](NC(=O)[C@H](CCCNC(=N)N)NC(=O)OCc1ccccc1)C(=O)N[C@@H](CC(C)C)[C@@H](O)CC(=O)NC1CCCCC1	0.447	0.026	6.8	> 100	0.53	–	–	–	–
CC(C)C[C@H](NC(=O)[C@@H](NC(=O)[C@H](CCCNC(=N)N)NS(=O)(=O)Cc1ccccc1)C(C)C)[C@@H](O)CC(=O)NCCc1ccccc1	32	0.019	2.5	> 100	2.76	> 50	–	0.024	–
CC(C)C[C@H](NC(=O)[C@H](C)NC(=O)[C@H](CCCNC(=N)N)NC(=O)OCc1ccccc1)[C@@H](O)CC(=O)NC1Cc2ccccc2C1	> 100	0.772	–	> 100	–	–	66%	–	–
CC(C)C[C@H](NC(=O)[C@H](C)NC(=O)[C@H](CCCNC(=N)N)NC(=O)OCc1ccccc1)[C@@H](O)CC(=O)NC1CCCCC1	> 100	0.614	34.6	> 100	0.2	> 50	54% and 51%	–	–
CC(C)C[C@H](NC(=O)[C@H](C)NC(=O)[C@H](CCCNC(=N)N)NC(=O)OCc1ccccc1)[C@@H](O)CC(=O)NCc1ccccc1 (Cbz-Arg-Ala-[Sta]-NHBn)	> 100	0.53	–	> 100	–	–	60%	–	–
CC(C)C[C@H](NC(=O)[C@H](C)NC(=O)[C@H](CCCNC(=N)N)NC(=O)COCc1ccccc1)[C@@H](O)CC(=O)NCCc1ccccc1	> 100	0.55	23	> 100	0.16	> 50	81%	–	–
C[C@H](NC(=O)[C@H](CCCNC(=N)N)NC(=O)OCc1ccccc1)C(=O)N[C@@H](CC1CCCCC1)[C@@H](O)CC(=O)NC1CCCCC1	–	> 20	–	–	–	–	–	–	35
CC(C)C[C@H](NC(=O)[C@H](C)NC(=O)[C@H](CCCN)NC(=O)OCc1ccccc1)[C@@H](O)CC(=O)NC1CCCCC1	> 100	> 20	> 50	> 100	0.18	> 50	–	–	–
